≈ marks a conversion by molar mass, not a printed value.
Each molecule was assayed on A. baumannii strain ATCC19606 (assay: Minimum inhibitory concentration (MIC) determination, microbroth dilution (CLSI)). Details: Acinetobacter baumannii; A. baumannii ATCC19606; CAMHB; read after 20 hours; >=80% growth inhibition; read-out: ATCC19606 MIC.
Assay type: cell-based
Outline: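 After 20 h at 35±2 °C, MIC taken visually and by OD 600 nm as the lowest concentration giving ≥80% growth inhibition. Bacteria (~5×10^5 CFU/ml) were tested per CLSI microbroth dilution against twofold serial compound dilutions in cation-adjusted Mueller Hinton broth.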

Which MIC does the source give for `CN1C(=O)[C@H](CCCCN)NC(=O)[C@H](CCCN)NCc2cccnc2Sc2c(Cl)cc(C(F)(F)F)cc2CNC(=O)[C@@H]1Cc1c[nH]c2ccccc12` [Example 62, (11S,14S,17S)-14-(4-Amino-butyl)-11-(3-amino-propyl)-25-chloro-17-(1H-indol-3-ylmethyl)-16-methyl-23-trifluoromethyl-2-thia-4,10,13,16,19-pentaaza-tricyclo[19.4.0.0*3,8*]pentacosa-1(25),3,5,7,21,23-hexaene-12,15,18-trione] here?
Its MIC is 0.12 µg/mL (≈ 0.155 µM).

Which MIC does the source give for `CN1C(=O)[C@H](CCCCN)NC(=O)[C@H](CCCN)NCc2ccccc2Sc2cnccc2CNC(=O)[C@@H]1Cc1c[nH]c2ccccc12` [Example 63, (12S,15S,18S)-15-(4-Amino-butyl)-18-(3-amino-propyl)-12-(1H-indol-3-ylmethyl)-13-methyl-2-thia-5,10,13,16,19-pentaaza-tricyclo[19.4.0.0*3,8*]pentacosa-1(25),3,5,7,21,23-hexaene-11,14,17-trione] here?
The MIC was 32 µg/mL (≈ 47.7 µM).

Which MIC does the source give for `CN1C(=O)[C@H](CCCCN)NC(=O)[C@H](CCCN)NCc2cc(F)ccc2Sc2c(Cl)cccc2CNC(=O)[C@@H]1Cc1c[nH]c2ccccc12` [Example 64, (12S,15S,18S)-15-(4-Amino-butyl)-18-(3-amino-propyl)-4-chloro-23-fluoro-12-(1H-indol-3-ylmethyl)-13-methyl-2-thia-10,13,16,19-tetraaza-tricyclo[19.4.0.0*3,8*]pentacosa-1(25),3,5,7,21,23-hexaene-11,14,17-trione] here?
Its MIC is 32 µg/mL (≈ 44.3 µM).

Which MIC does the source give for `Cc1cccc2c1Sc1ccc(F)cc1CN[C@@H](CCCN)C(=O)N[C@@H](CCCCN)C(=O)N(C)[C@@H](Cc1c[nH]c3ccccc13)C(=O)NC2` [Example 65, (12S,15S,18S)-15-(4-Amino-butyl)-18-(3-amino-propyl)-23-fluoro-12-(1H-indol-3-ylmethyl)-4,13-dimethyl-2-thia-10,13,16,19-tetraaza-tricyclo[19.4.0.0*3,8*]pentacosa-1(25),3,5,7,21,23-hexaene-11,14,17-trione] here?
The MIC was 32 µg/mL (≈ 45.6 µM).

How did the MIC turn out when `CCc1ccc2c(c1)CNC(=O)[C@H](Cc1c[nH]c3ccccc13)N(C)C(=O)[C@H](CCCCN)NC(=O)[C@H](CCCN)NCc1ccccc1S2` [Example 66, (12S,15S,18S)-15-(4-Amino-butyl)-18-(3-amino-propyl)-6-ethyl-12-(1H-indol-3-ylmethyl)-13-methyl-2-thia-10,13,16,19-tetraaza-tricyclo[19.4.0.0*3,8*]pentacosa-1(25),3,5,7,21,23-hexaene-11,14,17-trione] was run?
The MIC was 0.5 µg/mL (≈ 0.716 µM).

How did the MIC turn out when `CN1C(=O)[C@H](CCCCN)NC(=O)[C@H](CCCN)NCc2cccnc2Sc2c(Cl)cc(Cl)cc2CNC(=O)[C@@H]1Cc1c[nH]c2ccccc12` [Example 67, (11S,14S,17S)-14-(4-Amino-butyl)-11-(3-amino-propyl)-23,25-dichloro-17-(1H-indol-3-ylmethyl)-16-methyl-2-thia-4,10,13,16,19-pentaaza-tricyclo[19.4.0.0*3,8*]pentacosa-1(25),3,5,7,21,23-hexaene-12,15,18-trione] was run?
Its MIC is 0.12 µg/mL (≈ 0.162 µM).

`CN1C(=O)[C@H](CCCCN)NC(=O)[C@H](CCCN)NCc2cccnc2Sc2c(C(F)(F)F)ccc(Cl)c2CNC(=O)[C@@H]1Cc1c[nH]c2ccccc12` [Example 68, (11S,14S,17S)-14-(4-Amino-butyl)-11-(3-amino-propyl)-22-chloro-17-(1H-indol-3-ylmethyl)-16-methyl-25-trifluoromethyl-2-thia-4,10,13,16,19-pentaaza-tricyclo[19.4.0.0*3,8*]pentacosa-1(25),3,5,7,21,23-hexaene-12,15,18-trione] was tested. Which MIC did it give?
Its MIC is 0.5 µg/mL (≈ 0.647 µM).

How did the MIC turn out when `CN1C(=O)[C@H](CCCCN)NC(=O)[C@H](CCCN)NCc2ccccc2Sc2ccc(-c3ccccc3)cc2CNC(=O)[C@@H]1Cc1c[nH]c2ccccc12` [Example 69, (12S,15S,18S)-15-(4-Amino-butyl)-18-(3-amino-propyl)-12-(1H-indol-3-ylmethyl)-13-methyl-6-phenyl-2-thia-10,13,16,19-tetraaza-tricyclo[19.4.0.0*3,8*]pentacosa-1(25),3,5,7,21,23-hexaene-11,14,17-trione] was run?
The MIC was 4 µg/mL (≈ 5.36 µM).

With `CN1C(=O)[C@H](CCCCN)NC(=O)[C@H](CCCN)NCc2ccccc2Sc2ccc(C(C)(C)C)cc2CNC(=O)[C@@H]1Cc1c[nH]c2ccccc12` [Example 70, (12S,15S,18S)-15-(4-Amino-butyl)-18-(3-amino-propyl)-6-tert-butyl-12-(1H-indol-3-ylmethyl)-13-methyl-2-thia-10,13,16,19-tetraaza-tricyclo[19.4.0.0*3,8*]pentacosa-1(25),3,5,7,21,23-hexaene-11,14,17-trione] as the molecule, how does the MIC read?
The MIC was 2 µg/mL (≈ 2.75 µM).

With `COc1ccc2c(c1)CNC(=O)[C@H](Cc1c(C)[nH]c3ccccc13)N(C)C(=O)[C@H](CCCCN)NC(=O)[C@H](CCCN)NCc1ccccc1S2` [Example 71, (12S,15S,18S)-15-(4-Amino-butyl)-18-(3-amino-propyl)-6-methoxy-13-methyl-12-(2-methyl-1H-indol-3-ylmethyl)-2-thia-10,13,16,19-tetraaza-tricyclo[19.4.0.0*3,8*]pentacosa-1(21),3,5,7,22,24-hexaene-11,14,17-trione] as the molecule, how does the MIC read?
The MIC was 0.5 µg/mL (≈ 0.7 µM).

With `CC(C)c1ccc2c(c1)CNC(=O)[C@H](Cc1c[nH]c3ccccc13)N(C)C(=O)[C@H](CCCCN)NC(=O)[C@H](CCCN)NCc1ccccc1S2` [Example 72, (12S,15S,18S)-15-(4-Amino-butyl)-18-(3-amino-propyl)-12-(1H-indol-3-ylmethyl)-6-isopropyl-13-methyl-2-thia-10,13,16,19-tetraaza-tricyclo[19.4.0.0*3,8*]pentacosa-1(25),3,5,7,21,23-hexaene-11,14,17-trione] as the molecule, how does the MIC read?
The MIC was 64 µg/mL (≈ 89.9 µM).

How did the MIC turn out when `Cc1[nH]c2ccccc2c1C[C@H]1C(=O)NCc2cc(C(F)(F)F)cc(Cl)c2Sc2ncccc2CN[C@@H](CCCN)C(=O)N[C@@H](CCCCN)C(=O)N1C` [Example 74, (11S,14S,17S)-14-(4-Amino-butyl)-11-(3-amino-propyl)-25-chloro-16-methyl-17-(2-methyl-1H-indol-3-ylmethyl)-23-trifluoromethyl-2-thia-4,10,13,16,19-pentaaza-tricyclo[19.4.0.0*3,8*]pentacosa-1(25),3(8),4,6,21,23-hexaene-12,15,18-trione] was run?
Its MIC is 0.25 µg/mL (≈ 0.318 µM).

`Cc1[nH]c2ccccc2c1C[C@H]1C(=O)NCc2c(C(F)(F)F)ccc(Cl)c2Sc2ncccc2CN[C@@H](CCCN)C(=O)N[C@@H](CCCCN)C(=O)N1C` [Example 75, (11S,14S,17S)-14-(4-Amino-butyl)-11-(3-amino-propyl)-25-chloro-16-methyl-17-(2-methyl-1H-indol-3-ylmethyl)-22-trifluoromethyl-2-thia-4,10,13,16,19-pentaaza-tricyclo[19.4.0.0*3,8*]pentacosa-1(25),3(8),4,6,21,23-hexaene-12,15,18-trione] was tested. Which MIC did it give?
Its MIC is 0.12 µg/mL (≈ 0.152 µM).

`Cc1[nH]c2ccccc2c1C[C@H]1C(=O)NCc2cc(Cl)cc(Cl)c2Sc2ncccc2CN[C@@H](CCCN)C(=O)N[C@@H](CCCCN)C(=O)N1C` [Example 76, (11S,14S,17S)-14-(4-Amino-butyl)-11-(3-amino-propyl)-23,25-dichloro-16-methyl-17-(2-methyl-1H-indol-3-ylmethyl)-2-thia-4,10,13,16,19-pentaaza-tricyclo[19.4.0.0*3,8*]pentacosa-1(25),3(8),4,6,21,23-hexaene-12,15,18-trione] was tested. Which MIC did it give?
Its MIC is 0.12 µg/mL (≈ 0.159 µM).

Which MIC does the source give for `CCN1C(=O)[C@H](CCCCN)NC(=O)[C@H](CCCN)NCc2cccnc2Sc2c(Cl)cc(C(F)(F)F)cc2CNC(=O)[C@@H]1Cc1c[nH]c2ccccc12` [Example 77, (11S,14S,17S)-14-(4-Amino-butyl)-11-(3-amino-propyl)-25-chloro-16-ethyl-17-(1H-indol-3-ylmethyl)-23-trifluoromethyl-2-thia-4,10,13,16,19-pentaaza-tricyclo[19.4.0.0*3,8*]pentacosa-1(25),3(8),4,6,21,23-hexaene-12,15,18-trione] here?
Its MIC is 0.5 µg/mL (≈ 0.635 µM).

How did the MIC turn out when `CCN1C(=O)[C@H](CCCCN)NC(=O)[C@H](CCCN)NCc2cccnc2Sc2c(Cl)ccc(Cl)c2CNC(=O)[C@@H]1Cc1c[nH]c2ccccc12` [Example 78, (11S,14S,17S)-14-(4-Amino-butyl)-11-(3-amino-propyl)-22,25-dichloro-16-ethyl-17-(1H-indol-3-ylmethyl)-2-thia-4,10,13,16,19-pentaaza-tricyclo[19.4.0.0*3,8*]pentacosa-1(25),3(8),4,6,21,23-hexaene-12,15,18-trione] was run?
Its MIC is 0.25 µg/mL (≈ 0.332 µM).

`CCN1C(=O)[C@H](CCCCN)NC(=O)[C@H](CCCN)NCc2cccnc2Sc2c(Cl)ccc(C(F)(F)F)c2CNC(=O)[C@@H]1Cc1c[nH]c2ccccc12` [Example 79, (11S,14S,17S)-14-(4-Amino-butyl)-11-(3-amino-propyl)-25-chloro-16-ethyl-17-(1H-indol-3-ylmethyl)-22-trifluoromethyl-2-thia-4,10,13,16,19-pentaaza-tricyclo[19.4.0.0*3,8*]pentacosa-1(25),3(8),4,6,21,23-hexaene-12,15,18-trione] was tested. Which MIC did it give?
Its MIC is 0.25 µg/mL (≈ 0.318 µM).

Which MIC does the source give for `CCN1C(=O)[C@H](CCCCN)NC(=O)[C@H](CCCN)NCc2cccnc2Sc2c(Cl)cc(Cl)cc2CNC(=O)[C@@H]1Cc1c[nH]c2ccccc12` [Example 80, (11S,14S,17S)-14-(4-Amino-butyl)-11-(3-amino-propyl)-23,25-dichloro-16-ethyl-17-(1H-indol-3-ylmethyl)-2-thia-4,10,13,16,19-pentaaza-tricyclo[19.4.0.0*3,8*]pentacosa-1(25),3(8),4,6,21,23-hexaene-12,15,18-trione] here?
Its MIC is 0.12 µg/mL (≈ 0.159 µM).

`NCCCC[C@@H]1NC(=O)[C@H](CCCN)NCc2cccnc2Sc2c(Cl)cc(Cl)cc2CNC(=O)[C@H](Cc2c[nH]c3ccccc23)NC1=O` [Example 81, (11S,14S,17S)-14-(4-Amino-butyl)-11-(3-amino-propyl)-23,25-dichloro-17-(1H-indol-3-ylmethyl)-2-thia-4,10,13,16,19-pentaaza-tricyclo[19.4.0.0*3,8*1]pentacosa-1(25),3(8),4,6,21,23-hexaene-12,15,18-trione] was tested. Which MIC did it give?
Its MIC is 1 µg/mL (≈ 1.38 µM).

From patent US10030047B2 (Hoffmann-La Roche Inc., priority 2015, dated 2018)
